Results on seven compounds are retold here after patent publication US20250353874A1, “GLUCOCORTICOID RECEPTOR AGONISTS” (Eli Lilly and Company, priority 2021, published 2025).

Chain of hGR (GR-LBD) (P04150 524-758): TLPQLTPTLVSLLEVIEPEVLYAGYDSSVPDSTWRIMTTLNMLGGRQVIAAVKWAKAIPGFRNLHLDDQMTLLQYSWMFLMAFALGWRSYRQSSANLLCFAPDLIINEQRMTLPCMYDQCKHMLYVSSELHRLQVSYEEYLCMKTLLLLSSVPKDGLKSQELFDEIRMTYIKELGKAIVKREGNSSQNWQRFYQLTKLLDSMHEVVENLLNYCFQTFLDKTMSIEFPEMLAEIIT

One test deals with hGR (GR-LBD) (Homo sapiens (Human), UniProt P04150). Kind of test: hGR CoActivator Recruitment Assay (LanthaScreen TR-Fret GR Coactivator Assay). The format is biochemical. As to conditions: 10-point dilution, top concentration 200 nM, positive control 4 uM dexamethasone, read-out: IC50. Here is the method:
hGR CoActivator Recruitment Assay
The activity of glucocorticoid compounds was measured using the LanthaScreen TR-Fret GR Coactivator Assay from Life Technologies (A15899). The compounds were acoustically transferred to an assay plate in a 3-fold 10-point serial dilution with a top concentration of 200 nM. Ten microliters of a 2× solution of GR-LBD was added to the compound plate and incubated for 10 min. Then ten microliters of a 2× solution of Fluoresein-SRC1-4 and Tb labelled anti-GST antibody were added to the plate. The plate was incubated in the dark for two hours and then read on an Envision plate reader, with excitation at 340 nm and emission at 520 nm (Fluorescein) and 490 nm (Terbium). The emission ratio of 520/490 was analyzed in Genedata. To obtain percent activity, the data was compared to a negative control of DMSO and positive control of 4 uM dexamethasone.
On to `Cc1ccc(OCc2cccc(N)c2)c(F)c1[C@@H]1O[C@@H]2C[C@H]3[C@@H]4CCC5=CC(=O)C=C[C@]5(C)[C@H]4[C@@H](O)C[C@]3(C)[C@]2(C(=O)CO)O1` [Example 1, (6aR,6bS,7S,8aS,8bS,10R,11aR,12aS,12bS)-10-(3-((3-Aminobenzyl)oxy)-2-fluoro-6-methylphenyl)-7-hydroxy-8b-(2-hydroxyacetyl)-6a,8a-dimethyl-1,2,6a,6b,7,8,8a,8b,11a,12,12a,12b-dodecahydro-4H-naphtho[2′,1′:4,5]indeno[1,2-d][1,3]dioxol-4-one], for which the IC50 – broadly, the concentration that inhibits the measured activity by half – was 2.12 nM.

Consider `Cc1ccc(OCc2cccc(N)c2)c(F)c1[C@H]1O[C@@H]2C[C@H]3[C@@H]4CCC5=CC(=O)C=C[C@]5(C)[C@H]4[C@@H](O)C[C@]3(C)[C@]2(C(=O)CO)O1` [Example 2, (6aR,6bS,7S,8aS,8bS,10S,11aR,12aS,12bS)-10-(3-((3-Aminobenzyl)oxy)-2-fluoro-6-methylphenyl)-7-hydroxy-8b-(2-hydroxyacetyl)-6a,8a-dimethyl-1,2,6a,6b,7,8,8a,8b,11a,12,12a,12b-dodecahydro-4H-naphtho[2′,1′:4,5]indeno[1,2-d][1,3]dioxol-4-one], for which the IC50 is 1.44 nM.

As for `COc1ccc(OCc2cccc(N)c2)c(F)c1[C@@H]1O[C@@H]2C[C@H]3[C@@H]4CCC5=CC(=O)C=C[C@]5(C)[C@H]4[C@@H](O)C[C@]3(C)[C@]2(C(=O)CO)O1` [Example 4, (6aR,6bS,7S,8aS,8bS,10R,11aR,12aS,12bS)-10-(3-((3-Aminobenzyl)oxy)-2-fluoro-6-methoxyphenyl)-7-hydroxy-8b-(2-hydroxyacetyl)-6a,8a-dimethyl-1,2,6a,6b,7,8,8a,8b,11a,12,12a,12b-dodecahydro-4H-naphtho[2′,1′:4,5]indeno[1,2-d][1,3]dioxol-4-one], the half-inhibitory concentration (IC50) was found to be 2.47 nM.

In the case of `COc1ccc(OCc2cccc(N)c2)c(F)c1[C@H]1O[C@@H]2C[C@H]3[C@@H]4CCC5=CC(=O)C=C[C@]5(C)[C@H]4[C@@H](O)C[C@]3(C)[C@]2(C(=O)CO)O1` [Example 5, (6aR,6bS,7S,8aS,8bS,10S,11aR,12aS,12bS)-10-(3-((3-Aminobenzyl)oxy)-2-fluoro-6-methoxyphenyl)-7-hydroxy-8b-(2-hydroxyacetyl)-6a,8a-dimethyl-1,2,6a,6b,7,8,8a,8b,11a,12,12a,12b-dodecahydro-4H-naphtho[2′,1′:4,5]indeno[1,2-d][1,3]dioxol-4-one], the IC50 came to 1.4 nM.

The same test, now with this note: top concentration 200 nM, read-out: relative IC50.
For `C[C@]12C=CC(=O)C=C1CC[C@@H]1[C@@H]2[C@@H](O)C[C@@]2(C)[C@H]1C[C@H]1O[C@H](c3c(F)cccc3OCc3cccc(N)c3)O[C@]12C(=O)CO` [Example 45, (6aR,6bS,7S,8aS,8bS,10S,11aR,12aS,12bS)-10-(2-((3-aminobenzyl)oxy)-6-fluorophenyl)-7-hydroxy-8b-(2-hydroxyacetyl)-6a,8a-dimethyl-1,2,6a,6b,7,8,8a,8b,11a,12,12a,12b-dodecahydro-4H-naphtho[2′,1′:4,5]indeno[1,2-d][1,3]dioxol-4-one], the IC50 was over 200 nM.

As for `C[C@]12C=CC(=O)C=C1CC[C@@H]1[C@@H]2[C@@H](O)C[C@@]2(C)[C@H]1C[C@H]1O[C@H](c3c(Cl)cccc3OCc3cccc(N)c3)O[C@]12C(=O)CO` [Example 52, (6aR,6bS,7S,8aS,8bS,10S,11aR,12aS,12bS)-10-(2-((3-aminobenzyl)oxy)-6-chlorophenyl)-7-hydroxy-8b-(2-hydroxyacetyl)-6a,8a-dimethyl-1,2,6a,6b,7,8,8a,8b,11a,12,12a,12b-dodecahydro-4H-naphtho[2′,1′:4,5]indeno[1,2-d][1,3]dioxol-4-one], the IC50 was over 200 nM.

With `Cc1ccc(OCc2ccccc2N)cc1[C@@H]1O[C@@H]2C[C@H]3[C@@H]4CCC5=CC(=O)C=C[C@]5(C)[C@H]4[C@@H](O)C[C@]3(C)[C@]2(C(=O)CO)O1` [Example 80, (6aR,6bS,7S,8aS,8bS,10R,11aR,12aS,12bS)-10-(5-((2-aminobenzyl)oxy)-2-methylphenyl)-7-hydroxy-8b-(2-hydroxyacetyl)-6a,8a-dimethyl-1,2,6a,6b,7,8,8a,8b,11a,12,12a,12b-dodecahydro-4H-naphtho[2′,1′:4,5]indeno[1,2-d][1,3]dioxol-4-one], the IC50 is over 200 nM.
